In US6706663B2, “Herbicidal 3-heterocyclic substituted benzisothiazole and benzisoxazole compounds” (Wyeth, priority 2000, dated 2004):

Assays:
[1] = system: TRZAWR (Wheat, Winter, cv Riband); assay: Postemergence herbicidal evaluation; type: in vivo, Triticum aestivum; settings: for TRZAWR herbicidal rating: postemergence
Procedure, shortened: (§1)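 Seedlings grown for about two weeks were sprayed postemergence and then kept under standard greenhouse care. Injury was rated visually 4–5 weeks after treatment on a 0–9 scale against untreated controls, and ratings from repeat tests were averaged.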

[2] = system: ECHORC (Echinochloa oryzoides); assay: Flooded paddy, preemergence weed control; type: in vivo, Echinochloa oryzoides (Ard.) Fritsch.; settings: rated 3-4 weeks after treatment, 0-9 rating scale
Procedure, shortened: (§2)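 Seeds or propagules were planted in the top 0.5 cm of silt loam soil and kept flooded 1.5–3 cm above the surface throughout, then held in the greenhouse. Injury was rated visually on a 0–9 scale against untreated controls, covering stand, vigor, malformation, size and chlorosis.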

[3] = system: SAGPY (Sagittaria pygmaea); assay: Flooded paddy, preemergence weed control; type: in vivo, L.; settings: rated 3-4 weeks after treatment, 0-9 rating scale
Procedure, shortened: as §2

[4] = system: ABUTH (Abutilon theophrasti); assay: Preemergence herbicidal evaluation; type: in vivo, Medic.; settings: preemergence, rated 4-5 weeks after treatment
[5] = system: CHEAL (Chenopodium album); assay: Preemergence herbicidal evaluation; type: in vivo, L.; settings: preemergence, rated 4-5 weeks after treatment
Procedure, shortened: (§3)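 Test compound is applied in aqueous acetone to cups just after seeding. Cups are watered and maintained on greenhouse benches. Each cup is scored 0–9 by eye relative to a control after four to five weeks.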

[6] = system: CASOB (Cassia obtusifolia); assay: Preemergence herbicidal evaluation; type: in vivo, L.; settings: preemergence, rated 4-5 weeks after treatment
Procedure, shortened: as §3

[7] = system: AMBEL (Ambrosia artemisifolia); assay: Preemergence herbicidal evaluation; type: in vivo, L.; settings: preemergence, rated 4-5 weeks after treatment
Procedure, shortened: as §3

[8] = system: CYPIR (Cyperus iria); assay: Flooded paddy, preemergence weed control; type: in vivo; settings: rated 3-4 weeks after treatment, 0-9 rating scale
Procedure, shortened: as §2

[9] = system: GLXMAW (Soybean, Williams); assay: Preemergence herbicidal evaluation; type: in vivo, Glycine max, (L.) Merr. cv Williams; settings: preemergence, rated 4-5 weeks after treatment
[10] = system: SETVI (Setaria viridis); assay: Postemergence herbicidal evaluation; type: in vivo, (L.) Beau; settings: for SETVI herbicidal rating: postemergence
Procedure, shortened: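 Postemergence foliar spray on two-week-old seedlings, dose equivalent to about 0.0040 to 1.000 kg/ha. Ratings use a 0-9 visual scale relative to control at four to five weeks.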

[11] = system: ZEAMX (Corn, Field); assay: Preemergence herbicidal evaluation; type: in vivo, Zea mays, L.; settings: preemergence, rated 4-5 weeks after treatment
[12] = system: ORYSAT (Rice, Tebonnet); assay: Flooded paddy, post-transplant rice tolerance; type: in vivo, Oryza sativa, (L.) Tebonnet; settings: flooded paddy, post-transplant rice, rated 3-4 weeks after treatment, 0-9 rating scale
Procedure, shortened: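 Seedlings aged ten days are transplanted in pairs into undrained pots of silt loam, which are then flooded to a depth of 1.5 to 3 cm. After herbicide application the pots are kept in a greenhouse with the flood maintained. Plants are rated 0-9 by visual comparison with controls.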

[13] = system: ECHCG (Echinochloa crus-galli); assay: Postemergence herbicidal evaluation; type: in vivo, (L.) Beau; settings: for ECHCG herbicidal rating: postemergence
Procedure, shortened: as §1

[14] = system: MOOVA (Monochoria vaginalis); assay: Flooded paddy, preemergence weed control; type: in vivo, Presl.; settings: rated 3-4 weeks after treatment, 0-9 rating scale
Procedure, shortened: as §2

[15] = system: IPOHE (Ipomoea hederacea); assay: Preemergence herbicidal evaluation; type: in vivo, (L.) Jacq.; settings: preemergence, rated 4-5 weeks after treatment

Compound: Cn1c(C(F)(F)F)cc(=O)n(-c2ccc3snc(C4OCC(CS(C)(=O)=O)O4)c3c2)c1=O (single isomer, unassigned) [Compound 86, 1-methyl-3-[3-[4-[(methylsulfonyl)methyl]-1,3-dioxolan-2-yl]-1,2-benzisothiazol-5-yl]-6-(trifluoromethyl)uracil]
- TRZAWR herbicidal rating ([1]; rate 0.0320 kg/ha): 2.5
- TRZAWR herbicidal rating ([1]; rate 0.0620 kg/ha): 3.0
- ECHORC herbicidal rating ([2]; rate 0.0320 kg/ha): 0.0
- ECHORC herbicidal rating ([2]; rate 0.1250 kg/ha): 3.0
- SAGPY herbicidal rating ([3]; rate 0.0320 kg/ha): 0.0
- SAGPY herbicidal rating ([3]; rate 0.1250 kg/ha): 0.0
- Preemergence herbicidal rating ABUTH ([4]; rate 0.0620 kg/ha): 9.0
- Preemergence herbicidal rating ABUTH ([4]; rate 0.1250 kg/ha): 9.0
- Preemergence herbicidal rating ABUTH ([4]; rate 0.2500 kg/ha): 9.0
- Preemergence herbicidal rating CHEAL ([5]; rate 0.0620 kg/ha): 9.0
- Preemergence herbicidal rating CHEAL ([5]; rate 0.1250 kg/ha): 9.0
- Preemergence herbicidal rating CHEAL ([5]; rate 0.2500 kg/ha): 9.0
- Preemergence herbicidal rating CASOB ([6]; rate 0.0620 kg/ha): 4.0
- Preemergence herbicidal rating CASOB ([6]; rate 0.1250 kg/ha): 9.0
- Preemergence herbicidal rating CASOB ([6]; rate 0.2500 kg/ha): 9.0
- Preemergence herbicidal rating AMBEL ([7]; rate 0.0620 kg/ha): 9.0
- Preemergence herbicidal rating AMBEL ([7]; rate 0.1250 kg/ha): 9.0
- Preemergence herbicidal rating AMBEL ([7]; rate 0.2500 kg/ha): 9.0
- CYPIR herbicidal rating ([8]; rate 0.0320 kg/ha): 0.0
- CYPIR herbicidal rating ([8]; rate 0.1250 kg/ha): 0.0
- Preemergence herbicidal rating GLXMAW ([9]; rate 0.0620 kg/ha): 7.0
- Preemergence herbicidal rating GLXMAW ([9]; rate 0.1250 kg/ha): 9.0
- Preemergence herbicidal rating GLXMAW ([9]; rate 0.2500 kg/ha): 9.0
- SETVI herbicidal rating ([10]; rate 0.0320 kg/ha): 8.0
- SETVI herbicidal rating ([10]; rate 0.0620 kg/ha): 9.0
- Preemergence herbicidal rating ZEAMX ([11]; rate 0.0620 kg/ha): 5.0
- Preemergence herbicidal rating ZEAMX ([11]; rate 0.1250 kg/ha): 8.0
- Preemergence herbicidal rating ZEAMX ([11]; rate 0.2500 kg/ha): 9.0
- ORYSAT herbicidal rating (transplanted rice tolerance) ([12]; rate 0.0320 kg/ha): 0.0
- ORYSAT herbicidal rating (transplanted rice tolerance) ([12]; rate 0.1250 kg/ha): 5.0
- ECHCG herbicidal rating ([13]; rate 0.0320 kg/ha): 4.0
- ECHCG herbicidal rating ([13]; rate 0.0620 kg/ha): 5.0
- MOOVA herbicidal rating ([14]; rate 0.0320 kg/ha): 5.0
- MOOVA herbicidal rating ([14]; rate 0.1250 kg/ha): 9.0
- Preemergence herbicidal rating IPOHE ([15]; rate 0.0620 kg/ha): 4.0
- Preemergence herbicidal rating IPOHE ([15]; rate 0.1250 kg/ha): 9.0
- Preemergence herbicidal rating IPOHE ([15]; rate 0.2500 kg/ha): 9.0

Compound: Cn1c(C(F)(F)F)cc(=O)n(-c2ccc3snc(C4OCC(CS(C)(=O)=O)O4)c3c2)c1=O (single isomer, unassigned) [Compound 87, 1-methyl-3-[3-[4-[(methylsulfonyl)methyl]-1,3-dioxolan-2-yl]-1,2-benzisothiazol-5-yl]-6-(trifluoromethyl)uracil]
- TRZAWR herbicidal rating ([1]; rate 0.0320 kg/ha): 3.0
- TRZAWR herbicidal rating ([1]; rate 0.0620 kg/ha): 4.0
- ECHORC herbicidal rating ([2]; rate 0.0320 kg/ha): 0.0
- ECHORC herbicidal rating ([2]; rate 0.1250 kg/ha): 0.0
- SAGPY herbicidal rating ([3]; rate 0.0320 kg/ha): 0.0
- SAGPY herbicidal rating ([3]; rate 0.1250 kg/ha): 0.0
- Preemergence herbicidal rating ABUTH ([4]; rate 0.0620 kg/ha): 9.0
- Preemergence herbicidal rating ABUTH ([4]; rate 0.1250 kg/ha): 9.0
- Preemergence herbicidal rating ABUTH ([4]; rate 0.2500 kg/ha): 9.0
- Preemergence herbicidal rating CHEAL ([5]; rate 0.0620 kg/ha): 9.0
- Preemergence herbicidal rating CHEAL ([5]; rate 0.1250 kg/ha): 9.0
- Preemergence herbicidal rating CHEAL ([5]; rate 0.2500 kg/ha): 9.0
- Preemergence herbicidal rating CASOB ([6]; rate 0.0620 kg/ha): 6.0
- Preemergence herbicidal rating CASOB ([6]; rate 0.1250 kg/ha): 9.0
- Preemergence herbicidal rating CASOB ([6]; rate 0.2500 kg/ha): 7.0
- Preemergence herbicidal rating AMBEL ([7]; rate 0.0620 kg/ha): 9.0
- Preemergence herbicidal rating AMBEL ([7]; rate 0.1250 kg/ha): 9.0
- Preemergence herbicidal rating AMBEL ([7]; rate 0.2500 kg/ha): 9.0
- CYPIR herbicidal rating ([8]; rate 0.0320 kg/ha): 0.0
- CYPIR herbicidal rating ([8]; rate 0.1250 kg/ha): 5.0
- Preemergence herbicidal rating GLXMAW ([9]; rate 0.0620 kg/ha): 9.0
- Preemergence herbicidal rating GLXMAW ([9]; rate 0.1250 kg/ha): 9.0
- Preemergence herbicidal rating GLXMAW ([9]; rate 0.2500 kg/ha): 9.0
- SETVI herbicidal rating ([10]; rate 0.0320 kg/ha): 6.0
- SETVI herbicidal rating ([10]; rate 0.0620 kg/ha): 9.0
- Preemergence herbicidal rating ZEAMX ([11]; rate 0.0620 kg/ha): 5.5
- Preemergence herbicidal rating ZEAMX ([11]; rate 0.1250 kg/ha): 8.0
- Preemergence herbicidal rating ZEAMX ([11]; rate 0.2500 kg/ha): 8.5
- ORYSAT herbicidal rating (transplanted rice tolerance) ([12]; rate 0.0320 kg/ha): 0.0
- ORYSAT herbicidal rating (transplanted rice tolerance) ([12]; rate 0.1250 kg/ha): 3.0
- ECHCG herbicidal rating ([13]; rate 0.0320 kg/ha): 3.0
- ECHCG herbicidal rating ([13]; rate 0.0620 kg/ha): 4.0
- MOOVA herbicidal rating ([14]; rate 0.0320 kg/ha): 0.0
- MOOVA herbicidal rating ([14]; rate 0.1250 kg/ha): 8.0
- Preemergence herbicidal rating IPOHE ([15]; rate 0.0620 kg/ha): 5.0
- Preemergence herbicidal rating IPOHE ([15]; rate 0.1250 kg/ha): 6.0
- Preemergence herbicidal rating IPOHE ([15]; rate 0.2500 kg/ha): 9.0

Compound: Cn1c(C(F)(F)F)cc(=O)n(-c2ccc3snc(-c4ccccn4)c3c2)c1=O [Compound 9, 1-methyl-3-[3-(2-pyridyl)-1,2-benzisothiazol-5-yl]-6-(trifluoromethyl)uracil]
- Postemergence herbicidal rating, TRZAWR ([1]; rate 0.0320 kg/ha): 4.0
- Postemergence herbicidal rating, TRZAWR ([1]; rate 0.0620 kg/ha): 4.5
- Postemergence herbicidal rating, TRZAWR ([1]; rate 0.1250 kg/ha): 6.0
- herbicidal rating, ECHORC ([2]; rate 0.0080 kg/ha): 4.0
- herbicidal rating, ECHORC ([2]; rate 0.0320 kg/ha): 7.0
- herbicidal rating, ECHORC ([2]; rate 0.1250 kg/ha): 9.0
- herbicidal rating, SAGPY ([3]; rate 0.0080 kg/ha): 0.0
- herbicidal rating, SAGPY ([3]; rate 0.0320 kg/ha): 3.0
- herbicidal rating, SAGPY ([3]; rate 0.1250 kg/ha): 9.0
- ABUTH preemergence herbicidal rating ([4]; Rate 0.0620 kg/ha): 9.0
- ABUTH preemergence herbicidal rating ([4]; Rate 0.1250 kg/ha): 9.0
- ABUTH preemergence herbicidal rating ([4]; Rate 0.2500 kg/ha): 9.0
- CHEAL preemergence herbicidal rating ([5]; Rate 0.0620 kg/ha): 9.0
- CHEAL preemergence herbicidal rating ([5]; Rate 0.1250 kg/ha): 9.0
- CHEAL preemergence herbicidal rating ([5]; Rate 0.2500 kg/ha): 9.0
- CASOB preemergence herbicidal rating ([6]; Rate 0.0620 kg/ha): 1.0
- CASOB preemergence herbicidal rating ([6]; Rate 0.1250 kg/ha): 2.7
- CASOB preemergence herbicidal rating ([6]; Rate 0.2500 kg/ha): 6.3
- AMBEL preemergence herbicidal rating ([7]; Rate 0.0620 kg/ha): 6.3
- AMBEL preemergence herbicidal rating ([7]; Rate 0.1250 kg/ha): 9.0
- AMBEL preemergence herbicidal rating ([7]; Rate 0.2500 kg/ha): 9.0
- herbicidal rating, CYPIR ([8]; rate 0.0080 kg/ha): 8.0
- herbicidal rating, CYPIR ([8]; rate 0.0320 kg/ha): 7.0
- herbicidal rating, CYPIR ([8]; rate 0.1250 kg/ha): 9.0
- GLXMAW preemergence herbicidal rating ([9]; Rate 0.0620 kg/ha): 4.0
- GLXMAW preemergence herbicidal rating ([9]; Rate 0.1250 kg/ha): 8.3
- GLXMAW preemergence herbicidal rating ([9]; Rate 0.2500 kg/ha): 8.7
- Postemergence herbicidal rating, SETVI ([10]; rate 0.0320 kg/ha): 8.0
- Postemergence herbicidal rating, SETVI ([10]; rate 0.0620 kg/ha): 9.0
- Postemergence herbicidal rating, SETVI ([10]; rate 0.1250 kg/ha): 9.0
- ZEAMX preemergence herbicidal rating ([11]; Rate 0.0620 kg/ha): 6.3
- ZEAMX preemergence herbicidal rating ([11]; Rate 0.1250 kg/ha): 6.7
- ZEAMX preemergence herbicidal rating ([11]; Rate 0.2500 kg/ha): 7.7
- herbicidal rating, ORYSAT (rice tolerance) ([12]; rate 0.0080 kg/ha): 4.0
- herbicidal rating, ORYSAT (rice tolerance) ([12]; rate 0.0320 kg/ha): 3.0
- herbicidal rating, ORYSAT (rice tolerance) ([12]; rate 0.1250 kg/ha): 6.0
- Postemergence herbicidal rating, ECHCG ([13]; rate 0.0320 kg/ha): 1.0
- Postemergence herbicidal rating, ECHCG ([13]; rate 0.0620 kg/ha): 2.0
- Postemergence herbicidal rating, ECHCG ([13]; rate 0.1250 kg/ha): 8.0
- herbicidal rating, MOOVA ([14]; rate 0.0080 kg/ha): 8.0
- herbicidal rating, MOOVA ([14]; rate 0.0320 kg/ha): 9.0
- herbicidal rating, MOOVA ([14]; rate 0.1250 kg/ha): 9.0
- IPOHE preemergence herbicidal rating ([15]; Rate 0.0620 kg/ha): 6.3
- IPOHE preemergence herbicidal rating ([15]; Rate 0.1250 kg/ha): 8.3
- IPOHE preemergence herbicidal rating ([15]; Rate 0.2500 kg/ha): 9.0
